Measurements from US11492629B2, “Extra-chromosomal circular DNA-mediated engineering of plant traits” (Kansas State University Research Foundation, priority 2019, dated 2022).

Assays:
Format in all cases: in vivo, Amaranthus palmeri
[1] = test system: progeny of GR A. palmeri plants (>80-100 EPSPS copies); test: Response to 1x glyphosate of progeny from randomly mated glyphosate-resistant (GR) plants grown without selection
Description: (§1) To investigate the evolution of resistance to glyphosate in response to glyphosate selection pressure, we exposed GS plants (<20 EPSPS copies) to glyphosate for one generation to determine the EPSPS copy number and eccDNA variation in each generation and assess the possibility of evolution of resistance to continuous exposure to glyphosate via eccDNA containing EPSPS gene amplification. This process can be repeated for 6 to 8 generations. We also initiated experiments to examine the reversal of glyphosate resistance to susceptibility in the absence of glyphosate selection pressure by growing GR plants (>80-100 EPSPS copies) in the absence of glyphosate selection and generating progenies by random mating. This process can be repeated for 6 to 8 generations. A portion of progenies will be screened for susceptibility or resistance to glyphosate and determine the EPSPS gene copies and presence or absence of eccDNA in each generation.
The progeny generated from random mating of GR plants (>80-100 EPSPS copies) were used in this study. The seed collected from two GR plants (allowed to mate randomly) were planted and seedlings were generated. Approximately 100 plants from each GR plant were grown in the greenhouse without exposure to glyphosate for seed production. Additionally, approximately 127 seedlings from each of the above GR plant were also grown separately and treated with 1× dose of glyphosate to assess their response. Leaf tissue from 40 plants each was also collected for only EPSPS copy number analysis.

A. palmeri plants = test: Whole-plant glyphosate treatment of field-collected A. palmeri, injury versus untreated check; settings: 868 g ae ha plus 2% (w/v) ammonium sulfate
Description: A. palmeri plants used in this study were generated from seeds collected from a field near Manhattan, Kans., USA, where there was incident of lack of control of this population with glyphosate application in the previous season. This field was exposed to frequent applications of glyphosate in Roundup Ready soybean, grown in rotation. Seed of A. palmeri was randomly sampled from ten plants and pooled. Sixty seedlings from the above sample along with a known glyphosate-susceptible (GS) A. palmeri were germinated and seedlings were transplanted individually into Miracle-Gro potting mix (Marysville, Ohio) in 10 cm×10 cm×10 cm plastic pots and watered from top in a greenhouse (25/20° C. temperature; 15/9 h light day/night, supplemented with […] illumination using sodium vapor lamps). At least 20 plants (10 to 12 cm tall) were treated separately with field use rate [868 g ae ha^−1 plus 2% (w/v) ammonium sulfate] or twice the field use rate of glyphosate. […] Plant survival was assessed four weeks after treatment.
In response to glyphosate treatment [868 g ae ha′ plus 2% (w/v) ammonium sulfate], plants showing injury levels of high (>80%) and low (<30%) in comparison to untreated check were grouped as GS and glyphosate-resistant (GR), respectively. […] DNA was quantified on Nanodrop Spectrophotometer.

[2] = test system: GS A. palmeri plants (<20 EPSPS copies); test: Glyphosate selection of glyphosate-susceptible (GS) seedlings in greenhouse, plant survival
Description: as §1
Approximately 1,009 seedlings were grown in greenhouse and treated with 0.25, 0.5 and 1× glyphosate (1×: 840 g ae/ha). The survivors have been selected for seed production of G-2 seed. Leaf tissue from 40 plants were collected for copy number analysis before the treatment with glyphosate. Additionally, the leaf samples were also collected from plants (at least 5) that survived glyphosate application.

[3] = seedlings from plant GR1, 1x glyphosate, 127 plants treated
[4] = seedlings from plant GR2, 1x glyphosate, 122 plants treated
[5] = glyphosate rate 0.25X (1X: 840 g ae/ha), 160 treated plants
[6] = glyphosate rate 0.5X (1X: 840 g ae/ha), 430 treated plants
[7] = glyphosate rate 1X (1X: 840 g ae/ha), 419 treated plants

In the case of `O=C(O)CNCP(=O)(O)O` [Glyphosate, N-(phosphonomethyl) glycine], the “% survival” value ([1]; seedlings from plant GR1, 1x glyphosate) is reported as 68%, the Alive [1, 3] is reported as 86 and the Dead [1, 3] is reported as 41. For the same molecule, the “% survival” value ([1]; seedlings from plant GR2, 1x glyphosate) was 72%, the Alive [1, 4] was 88 and the Dead [1, 4] was 34. The “injury level in comparison to untreated check” value (A. palmeri plants; plants grouped as GR (low injury)) was less than 30%, the “injury level in comparison to untreated check” value (A. palmeri plants; plants grouped as GS (high injury)) was greater than 80% and the “% survival” value ([2]; glyphosate rate 0.25X (1X: 840 g ae/ha)) was 16%. For the same molecule, the Alive [2, 5] was 26, the Dead [2, 5] was 134 and the “% survival” value ([2]; glyphosate rate 0.5X (1X: 840 g ae/ha)) was 4%. For the same molecule, the Alive [2, 6] was 18, the Dead [2, 6] was 412 and the “% survival” value ([2]; glyphosate rate 1X (1X: 840 g ae/ha)) was 3%. For the same molecule, the Alive [2, 7] was 13 and the Dead [2, 7] was 406.
